For assay [1], the target named is T1, SMARCA2-HiBiT HeLa cells (protein which is expressed from the SMARCA2 gene) (Homo sapiens, UniProt P51531).
T1 construct: protein which is expressed from the SMARCA2 and SMARCA4 genes; host or cells: HeLa (SMARCA2-HiBiT engineered line)
The assay is described as follows: SMARCA2 degradation assay (HiBiT-fusion HeLa cell line, 24 h, luminescence). It is filed as cell-based. Put shortly: (§1)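 HeLa cells carrying HiBiT-tagged SMARCA2 or SMARCA4 were seeded at 8,000 cells/well, allowed to attach overnight at 37° C., then given compounds in a 10-point dilution series (typically 10 μM to 300 pM) for 24 hours at 37° C. Remaining tagged protein was read by HiBiT lytic luminescence, and DC50s came from dose-response curves.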

The target of assay [2] is T2, SMARCA4-HiBiT HeLa cells (protein which is expressed from the SMARCA4 gene) (Homo sapiens, UniProt P51532).
T2 construct: protein which is expressed from the SMARCA2 and SMARCA4 genes; host or cells: HeLa (SMARCA4-HiBiT engineered line)
T2 sequence (P51532 whole entry): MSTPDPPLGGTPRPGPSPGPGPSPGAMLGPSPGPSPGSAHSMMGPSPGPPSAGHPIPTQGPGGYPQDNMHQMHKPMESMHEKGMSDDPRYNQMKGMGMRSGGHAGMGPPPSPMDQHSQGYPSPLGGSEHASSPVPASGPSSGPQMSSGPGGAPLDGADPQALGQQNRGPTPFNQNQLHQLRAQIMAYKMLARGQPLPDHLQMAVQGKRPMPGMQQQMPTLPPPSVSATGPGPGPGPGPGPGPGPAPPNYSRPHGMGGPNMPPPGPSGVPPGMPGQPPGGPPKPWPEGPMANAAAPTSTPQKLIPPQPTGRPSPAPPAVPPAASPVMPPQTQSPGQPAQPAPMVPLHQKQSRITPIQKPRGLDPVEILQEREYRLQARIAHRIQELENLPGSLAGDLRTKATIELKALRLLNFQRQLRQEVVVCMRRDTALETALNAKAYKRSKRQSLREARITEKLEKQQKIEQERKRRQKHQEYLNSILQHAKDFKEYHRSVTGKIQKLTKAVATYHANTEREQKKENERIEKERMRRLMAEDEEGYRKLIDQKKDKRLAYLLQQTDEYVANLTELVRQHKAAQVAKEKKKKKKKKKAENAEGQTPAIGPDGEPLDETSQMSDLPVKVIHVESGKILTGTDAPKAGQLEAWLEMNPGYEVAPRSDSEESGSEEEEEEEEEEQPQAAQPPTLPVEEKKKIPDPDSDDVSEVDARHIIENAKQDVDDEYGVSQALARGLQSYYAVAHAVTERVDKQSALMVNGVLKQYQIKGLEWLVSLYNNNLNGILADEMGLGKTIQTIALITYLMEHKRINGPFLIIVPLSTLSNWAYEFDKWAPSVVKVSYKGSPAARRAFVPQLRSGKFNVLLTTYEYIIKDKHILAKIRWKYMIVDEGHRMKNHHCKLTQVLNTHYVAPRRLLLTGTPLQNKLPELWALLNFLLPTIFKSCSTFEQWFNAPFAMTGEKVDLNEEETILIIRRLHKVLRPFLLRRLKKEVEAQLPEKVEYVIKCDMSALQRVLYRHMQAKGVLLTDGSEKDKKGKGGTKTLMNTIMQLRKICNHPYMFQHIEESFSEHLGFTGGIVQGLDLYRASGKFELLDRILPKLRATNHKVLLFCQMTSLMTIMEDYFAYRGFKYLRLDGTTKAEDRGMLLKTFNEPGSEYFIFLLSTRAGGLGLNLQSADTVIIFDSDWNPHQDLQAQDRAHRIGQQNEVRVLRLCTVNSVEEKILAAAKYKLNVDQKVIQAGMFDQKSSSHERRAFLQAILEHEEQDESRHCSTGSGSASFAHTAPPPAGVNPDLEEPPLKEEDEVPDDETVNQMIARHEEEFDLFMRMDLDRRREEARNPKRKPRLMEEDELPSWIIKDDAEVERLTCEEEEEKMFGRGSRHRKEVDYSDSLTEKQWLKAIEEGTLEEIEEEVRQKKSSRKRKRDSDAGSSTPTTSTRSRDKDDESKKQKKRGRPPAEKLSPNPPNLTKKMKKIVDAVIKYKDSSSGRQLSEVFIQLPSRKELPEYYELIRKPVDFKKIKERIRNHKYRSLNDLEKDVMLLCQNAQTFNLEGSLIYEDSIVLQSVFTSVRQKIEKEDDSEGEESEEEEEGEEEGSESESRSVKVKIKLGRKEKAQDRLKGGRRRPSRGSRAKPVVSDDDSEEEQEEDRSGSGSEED
The assay is described as follows: SMARCA4 degradation assay (HiBiT-fusion HeLa cell line, 24 h, luminescence). It counts as cell-based. Put shortly:
as §1
(In general: With HiBiT, luminescence reflects the tagged protein that the partner subunit can reach.)

Data on 20 compounds can be found in patent US20260265238A1, “COMPOUNDS AND PHARMACEUTICAL COMPOSITIONS THAT DEGRADE SWI/SNF-RELATED MATRIX-ASSOCIATED ACTIN-DEPENDENT REGULATOR OF CHROMATIN SUBFAMILY A” (Plexium, Inc., priority 2023, published 2026).

The structures appear in SMILES notation.

T1 sequence (P51531 whole entry): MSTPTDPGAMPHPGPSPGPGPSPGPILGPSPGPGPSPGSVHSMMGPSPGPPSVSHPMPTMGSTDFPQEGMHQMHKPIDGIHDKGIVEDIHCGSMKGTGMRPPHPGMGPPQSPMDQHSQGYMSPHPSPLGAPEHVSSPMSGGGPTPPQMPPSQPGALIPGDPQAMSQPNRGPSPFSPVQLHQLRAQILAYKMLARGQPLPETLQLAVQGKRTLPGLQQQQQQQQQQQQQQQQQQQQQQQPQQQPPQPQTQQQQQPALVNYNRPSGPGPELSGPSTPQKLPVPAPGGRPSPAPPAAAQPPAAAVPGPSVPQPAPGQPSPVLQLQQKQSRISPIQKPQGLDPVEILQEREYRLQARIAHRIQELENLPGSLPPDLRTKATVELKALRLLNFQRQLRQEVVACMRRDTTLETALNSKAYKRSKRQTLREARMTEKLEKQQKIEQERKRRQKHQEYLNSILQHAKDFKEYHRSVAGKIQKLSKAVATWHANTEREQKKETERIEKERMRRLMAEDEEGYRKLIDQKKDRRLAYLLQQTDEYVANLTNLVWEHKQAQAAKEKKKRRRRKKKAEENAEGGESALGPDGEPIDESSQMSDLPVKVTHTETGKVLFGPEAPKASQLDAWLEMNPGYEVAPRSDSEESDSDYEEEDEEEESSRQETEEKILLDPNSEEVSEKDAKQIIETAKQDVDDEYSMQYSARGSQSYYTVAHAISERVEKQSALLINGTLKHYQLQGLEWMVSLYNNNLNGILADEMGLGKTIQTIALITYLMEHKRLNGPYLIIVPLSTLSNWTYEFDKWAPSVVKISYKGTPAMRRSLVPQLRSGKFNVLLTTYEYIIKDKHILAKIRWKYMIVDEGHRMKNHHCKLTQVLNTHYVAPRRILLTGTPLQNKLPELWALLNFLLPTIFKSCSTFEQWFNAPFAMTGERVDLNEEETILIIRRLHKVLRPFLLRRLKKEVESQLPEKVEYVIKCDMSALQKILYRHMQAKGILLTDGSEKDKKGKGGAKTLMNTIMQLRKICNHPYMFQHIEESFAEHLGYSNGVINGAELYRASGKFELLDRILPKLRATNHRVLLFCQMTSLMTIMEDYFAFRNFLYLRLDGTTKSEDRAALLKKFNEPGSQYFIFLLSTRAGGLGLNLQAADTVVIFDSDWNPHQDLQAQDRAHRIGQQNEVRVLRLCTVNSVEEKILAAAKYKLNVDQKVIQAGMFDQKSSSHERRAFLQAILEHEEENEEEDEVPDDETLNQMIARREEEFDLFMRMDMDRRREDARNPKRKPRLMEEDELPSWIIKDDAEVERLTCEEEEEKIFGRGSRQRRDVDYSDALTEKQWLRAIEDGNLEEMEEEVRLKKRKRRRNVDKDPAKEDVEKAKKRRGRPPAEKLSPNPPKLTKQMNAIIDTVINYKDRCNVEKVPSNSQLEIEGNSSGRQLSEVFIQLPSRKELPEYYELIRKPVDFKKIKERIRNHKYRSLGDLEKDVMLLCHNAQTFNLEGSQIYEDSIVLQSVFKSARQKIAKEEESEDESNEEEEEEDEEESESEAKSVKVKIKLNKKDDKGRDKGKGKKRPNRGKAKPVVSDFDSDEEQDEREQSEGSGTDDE

A word on the DC50: it is the midpoint of the concentration-degradation curve. A lower DC50 goes with a more potent degrader. As for `C[C@@H]1CCN(c2cnnc(-c3ccccc3O)c2)CCN1c1ccc(C#N)c(C#CCNC(=O)c2cc3ncccn3n2)n1` [Compound P-410, N-[3-(6-{(R)-4-[6-(0-hydroxyphenyl)-4-pyridazinyl]-7-methyl-1,4-diazepan-1-yl}-3-cyano-2-pyridyl)-2-propynyl]-1,4,7a-triaza-2-indenecarboxamide], the DC50 in assay [1] and in assay [2] was over 5000 nM in each case.
A word on the inhibition: it is the percentage by which the read-out fell short of the control. High values mean strong suppression, low ones little suppression. As to `C[C@@H]1CCC(=O)N1CC#Cc1ncc(F)c(N2CCN(c3cc(-c4ccccc4O)nnc3N)CC[C@H]2C)n1` [Compound P-175, (R)-1-[3-(4-{(R)-4-[3-amino-6-(o-hydroxyphenyl)-4-pyridazinyl]-7-methyl-1,4-diazepan-1-yl}-5-fluoro-2-pyrimidinyl)-2-propynyl]-5-methyl-2-pyrrolidinone], the 50% degradation concentration (DC50) in assay [1] and in assay [2] was 50 to 500 nM each time. Besides, in assay [1] (@ 1 μM), the “SMARCA2 % Degradation @ 1 μM” value is recorded as “++ (++=30-70%)”. The compound further registered an inhibition at 1 µM in assay [2] (@ 1 μM) of under 30%.
As to `Nc1nnc(-c2ccccc2O)cc1N1CC2CCC(C1)N2c1ccnc(C#CCCNC(=O)c2cc3ncccn3n2)n1` [Compound P-96, N-(4-(4-(3-(3-amino-6-(2-hydroxyphenyl)pyridazin-4-yl)-3,8-diazabicyclo[3.2.1]octan-8-yl)pyrimidin-2-yl)but-3-yn-1-yl)pyrazolo[1,5-a]pyrimidine-2-carboxamide], the DC50 was in the range of 500 to 5000 nM in assay [1] and 50 to 500 nM in assay [2]. In addition, the “SMARCA2 % Degradation @ 1 μM” value in assay [1] (@ 1 μM) is on record as “++ (++=30-70%)”. In assay [2] (@ 1 μM), this compound had an inhibition at 1 µM of over 70%.
The matching figures for `Nc1nnc(-c2ccccc2O)cc1N1CC2CCC(C1)N2c1ccnc(C#CCNc2nc3ccccc3o2)n1` [Compound P-100, 2-(6-amino-5-(8-(2-(3-(benzo[d]doxazol-2-ylamino)prop-1-yn-1-yl)pyrimidin-4-yl)-3,8-diazabicyclo[3.2.1]octan-3-yl)pyridazin-3-yl)phenol]: 50 to 500 nM, 50 to 500 nM, “+++ (+++=>70%)” and 30 to 70%.
On to `COC[C@H](C)NCC#Cc1nccc(N2CCCN(c3cc(-c4ccccc4O)nnc3N)CC2)n1` [Compound P-276, 0-{5-[4-(2-{3-[(S)-2-methoxy-1-methylethylamino]-1-propynyl}-4-pyrimidinyl)-1,4-diazepan-1-yl]-6-amino-3-pyridazinyl}phenol], for which the DC50 in assay [1] and in assay [2] was 50 to 500 nM in each case. Besides, the “SMARCA2 % Degradation @ 1 μM” value in assay [1] (@ 1 μM) is reported as “++ (++=30-70%)”. The same compound displayed an inhibition at 1 µM in assay [2] (@ 1 μM) of 30 to 70%.
In the case of `C[C@H]1CN(c2ccnc(C#CCn3cncn3)n2)CCN1c1cc(-c2ccccc2O)nnc1N` [Compound P-330, 0-{5-[(S)-2-methyl-4-{2-[3-(1H-1,2,4-triazol-1-yl)-1-propynyl]-4-pyrimidinyl}-1-piperazinyl]-6-amino-3-pyridazinyl} phenol], the DC50 in assay [1] and in assay [2] was 50 to 500 nM throughout. Besides, the “SMARCA2 % Degradation @ 1 μM” value in assay [1] (@ 1 μM) is on record as “++ (++=30-70%)”. The same compound returned an inhibition at 1 µM in assay [2] (@ 1 μM) of under 30%.
For the compound `C[C@@H]1CCN(c2cc(-c3ccccc3O)nnc2N)CCN1c1ccnc(C#CCN2CCCCC2)c1` [Compound P-425, 0-(5-{(R)-5-methyl-4-[2-(3-piperidino-1-propynyl)-4-pyridyl]-1,4-diazepan-1-yl}-6-amino-3-pyridazinyl)phenol], the half-maximal degradation concentration (DC50) in assay [1] and in assay [2] was under 50 nM each time. The “SMARCA2 % Degradation @ 1 μM” value in assay [1] (1 μM) was “++ (++=30-70%)”. In addition, the inhibition at 1 µM in assay [2] (1 μM) lay within 30 to 70%.
With `C[C@@H]1CCN(c2cc(-c3ccccc3O)nnc2N)CCN1c1nc(C#CCN(C)C)ncc1F` [Compound P-226, o-{5-[(R)-4-{2-[3-(dimethylamino)-1-propynyl]-5-fluoro-4-pyrimidinyl}-5-mcthyl-1,4-diazcpan-1-yl]-6-amino-3-pyridazinyl}phenol], the DC50 in assay [1] and in assay [2] was under 50 nM each time. Moreover, the “SMARCA2 % Degradation @ 1 μM” value in assay [1] (@ 1 μM) is reported as “++ (++=30-70%)”. Besides, the inhibition at 1 µM in assay [2] (@ 1 μM) was under 30%.
As to `Nc1nnc(-c2ccccc2O)cc1N1CCN(c2ccnc(C#CCNC(=O)c3cc4n(n3)CCCO4)n2)CC1` [Compound P-57, N-(3-(4-(4-(3-amino-6-(2-hydroxyphenyl)pyridazin-4-yl)piperazin-1-y1)pyrimidin-2-yl)prop-2-yn-1-yl)-6,7-dihydro-5H-pyrazolo[5,1-b][1,3]oxazine-2-carboxamide], the DC50 in assay [1] was 50 to 500 nM; in assay [2], under 50 nM. The “SMARCA2 % Degradation @ 1 μM” value in assay [1] (@ 1 μM) is given as “++ (++=30-70%)”. In assay [2] (@ 1 μM), the inhibition at 1 µM fell in the range of 30 to 70%.
As to `CN(C)CC#Cc1nccc(N2CCCN(c3cc(-c4ccccc4O)nnc3N)CC2)n1` [Compound P-152, 2-(6-amino-5-(4-(2-(3-(dimethylamino)prop-1-yn-1-yl)pyrimidin-4-yl)-1,4-diazepan-1-yl)pyridazin-3-yl)phenol], the DC50 in assay [1] and in assay [2] was 50 to 500 nM in each case. Also, the “SMARCA2 % Degradation @ 1 μM” value in assay [1] (@ 1 μM) is “+++ (+++=>70%)”. Further, the inhibition at 1 µM in assay [2] (@ 1 μM) lay in the range of 30 to 70%.
As to `Cc1cnc(C#CCN(C)C)nc1N1CCN(c2cc(-c3ccccc3O)nnc2N)CC[C@H]1C` [Compound P-229, o-{5-[(R)-4-{2-[3-(dimethylamino)-1-propynyl]-5-methyl-4-pyrimidinyl}-5-methyl-1,4-diazepan-1-yl]-6-amino-3-pyridaziny1}phenol], the DC50 in assay [1] was under 50 nM; in assay [2], 50 to 500 nM. Besides, the “SMARCA2 % Degradation @ 1 μM” value in assay [1] (@ 1 μM) is “+++ (+++=>70%)”. In assay [2] (@ 1 μM), this compound displayed an inhibition at 1 µM of 30 to 70%.
The matching figures for `CN(C)CC#Cc1nccc(N2C[C@H]3CC[C@@H](C2)[C@H]3Oc2cc(-c3ccccc3O)nnc2N)n1` [Compound P-156, o-{5-[(1R,5S,8r)-3-{2-[3-(dimethylamino)-1-propynyl]-4-pyrimidinyl}-3-azabicyclo[3.2.1]oct-8-yloxy]-6-amino-3-pyridazinyl}phenol]: 50 to 500 nM, 500 to 5000 nM, “++ (++=30-70%)” and under 30%.
The matching figures for `CC(C)(C)OC(=O)N1CCCC1C#Cc1nccc(N2CCCN(c3cc(-c4ccccc4O)nnc3N)CC2)n1` (stereo not drawn) [Compound P-348, tert-butyl 2-[2-(4-{4-[3-amino-6-(o-hydroxyphenyl)-4-pyridazinyl]-1,4-diazepan-1-y1}-2-pyrimidinyl)ethynyl]-1-pyrrolidinecarboxylate]: 50 to 500 nM, 50 to 500 nM, “+++ (+++=>70%)” and over 70%.
The like results for `CC1CN(c2cc(-c3ccccc3O)nnc2N)CCN1c1ccnc(C#CCNC(=O)c2cc3ncccn3n2)n1` (stereo in doubt) [Compound P-81, (R)-N-(3-(4-(4-(3-amino-6-(2-hydroxyphenyl)pyridazin-4-yl)-2-methylpiperazin-1-yl)pyrimidin-2-yl)prop-2-yn-1-yl)pyrazolo[1,5-a]pyrimidine-2-carboxamide] were, in that order, 50 to 500 nM, under 50 nM, “++ (++=30-70%)” and 30 to 70%.
As to `Cc1oncc1C(=O)NCC#Cc1nccc(N2CCN(c3cc(-c4ccccc4O)nnc3N)CC2)n1` [Compound P-3, N-[3-(4-{4-[3-amino-6-(2-hydroxyphenyl)pyridazin-4-yl]piperazin-1-yl}pyrimidin-2-yl)prop-2-yn-1-yl]-5-methyl-1,2-oxazole-4-carboxamide], the half-maximal degradation concentration (DC50) in assay [1] and in assay [2] was 50 to 500 nM in each case. Further, the “SMARCA2 % Degradation @ 1 μM” value in assay [1] (@ 1 μM) was “++ (++=30-70%)”. For the same compound, in assay [2] (@ 1 μM), the inhibition at 1 µM was 30 to 70%.
On to `Nc1nnc(-c2ccccc2O)cc1N1CCCN(c2ccnc(C#CCn3ccnn3)n2)CC1` [Compound P-144, 2-(5-(4-(2-(3-(1H-1,2,3-triazol-1-yl)prop-1-yn-1-yl)pyrimidin-4-yl)-1,4-diazepan-1-yl)-6-aminopyridazin-3-yl)phenol], for which the DC50 in assay [1] and in assay [2] was 50 to 500 nM each time. In addition, the “SMARCA2 % Degradation @ 1 μM” value in assay [1] (@ 1 μM) is “+++ (+++=>70%)”. For the same compound, the inhibition at 1 µM in assay [2] (@ 1 μM) was in the range of 30 to 70%.
For `Nc1nnc(-c2ccccc2O)cc1N1CCN(c2ccnc(C#CCN3CCCCC3)n2)CC1` [Compound P-280, 0-(6-amino-5-{4-[2-(3-piperidino-1-propynyl)-4-pyrimidinyl]-1-piperazinyl}-3-pyridazinyl)phenol], the DC50 in assay [1] and in assay [2] was under 50 nM throughout. In assay [1] (@ 1 μM), the “SMARCA2 % Degradation @ 1 μM” value was “++ (++=30-70%)”. Also, the inhibition at 1 µM in assay [2] (@ 1 μM) is under 30%.
For `C[C@@H]1CCN(c2cc(-c3ccccc3O)nnc2N)CCN1c1ccnc(C#CCNC(=O)c2cccnc2)n1` [Compound P-240, N-[3-(4-{ (R)-4-[3-amino-6-(o-hydroxyphenyl)-4-pyridazinyl]-7-methyl-1,4-diazepan-1-yl}-2-pyrimidinyl)-2-propynyl]nicotinamide], the DC50 in assay [1] and in assay [2] was 500 to 5000 nM in each case. For the same compound, the “SMARCA2 % Degradation @ 1 μM” value in assay [1] (@ 1 μM) is “++ (++=30-70%)”. In assay [2] (@ 1 μM), this compound gave an inhibition at 1 µM of under 30%.
Take `C[C@@H]1CCN(c2cc(-c3ccccc3O)nnc2N)CCN1c1ccnc(C#CCN2CC(F)(F)C3(CCC3)C2)n1` [Compound P-209, o-{5-[(R)-4-(2-{3-(8,8-difluoro-6-aza-6-spiro[3.4]octyl)-1-propyny1}-4-pyrimidinyl)-5-methyl-1,4-diazepan-1-yl]-6-amino-3-pyridaziny1} phenol]: the DC50 in assay [1] and in assay [2] was 50 to 500 nM each time. The “SMARCA2 % Degradation @ 1 μM” value in assay [1] (@ 1 μM) is listed as “++ (++=30-70%)”. This compound also yielded an inhibition at 1 µM in assay [2] (@ 1 μM) of 30 to 70%.
For the compound `C[C@@H]1CCN(c2cc(-c3ccccc3O)nnc2N)CCN1c1ccnc(/C=C/CN(C)CCF)n1` [Compound P-164], the DC50 in assay [1] and in assay [2] was under 50 nM in each case. Besides, the “SMARCA2 % Degradation @ 1 μM” value in assay [1] (@ 1 μM) was “+++ (+++=>70%)”. This compound also gave an inhibition at 1 µM in assay [2] (@ 1 μM) of 30 to 70%.
